Source: ChEMBL document CHEMBL3091337, “Novel piperidinylamino-diarylpyrimidine derivatives with dual structural conformations as potent HIV-1 non-nucleoside reverse transcriptase inhibitors” (Bioorg Med Chem Lett, 2013)
Where a name gives a salt, the structure may show the parent alone.

Experiments:
[1] = Selectivity index, ratio of CC50 for human MT4 cells to EC50 for drug-resistant HIV1 RES056 harboring reverse transcriptase K103N/Y181C double mutant; format: toxicity, cell-based; settings: read-out: Ratio CC50/EC50
[2] = Selectivity index, ratio of CC50 for human MT4 cells to EC50 for HIV1 3B; format: toxicity, cell-based; settings: read-out: Ratio CC50/EC50
[3] = system: Human immunodeficiency virus 1; assay: Antiviral activity against drug-resistant HIV1 RES056 harboring reverse transcriptase K103N/Y181C double mutant infected in human MT-4 cells assessed as protection against virus-induced cytopathicity after 5 days by MTT assay; format: functional, organism-based; settings: Human immunodeficiency virus 1, RES056, MT4, 120 h
[4] = Cytotoxicity against human MT4 cells after 5 days by MTT assay; format: cell-based
[5] = system: Human immunodeficiency virus 1; assay: Antiviral activity against HIV1 3B infected in human MT-4 cells assessed as protection against virus-induced cytopathicity after 5 days by MTT assay; format: functional, organism-based; settings: Human immunodeficiency virus 1, 3B, MT4, 120 h
[6] = target: Human immunodeficiency virus type 1 reverse transcriptase (Human immunodeficiency virus 1, UniProt Q72547); assay: Inhibition of recombinant HIV1 reverse transcriptase using poly rA:dT as template/primer after 1 hr by ELISA

| Structure (SMILES) | selectivity ratio [1] | selectivity ratio [2] | EC50 [3] [µM] | CC50 at 120 h [4] [µM] | EC50 [5] [µM] | IC50 [6] [µM] |
| --- | --- | --- | --- | --- | --- | --- |
| Cc1cc(C)c(Nc2cc(NC3CCN(Cc4ccc(S(N)(=O)=O)cc4)CC3)nc(Nc3ccc(C#N)cc3)n2)c(C)c1 | < 1 | 83 | > 6.4 | 6.4 | 0.077 | – |
| Cc1cc(C)c(Oc2cc(NC3CCNCC3)nc(Nc3ccc(C#N)cc3)n2)c(C)c1 | ≤ 5 | 69 | ≥ 1.8 | 9.6 | 0.14 | – |
| Cc1cc(C#N)cc(C)c1Oc1cc(NC2CCNCC2)nc(Nc2ccc(C#N)cc2)n1 | 4 | 112 | 0.95 | 4.2 | 0.038 | – |
| Cc1cc(C)c(Oc2cc(NC3CCN(Cc4ccc(S(N)(=O)=O)cc4)CC3)nc(Nc3ccc(C#N)cc3)n2)c(C)c1 | < 1 | 61 | > 28 | 11 | 0.19 | – |
| Cc1cc(C)c(Oc2cc(NC3CCN(Cc4ccc(S(C)(=O)=O)cc4)CC3)nc(Nc3ccc(C#N)cc3)n2)c(C)c1 | ≤ 8 | 934 | ≥ 16 | 124 | 0.13 | – |
| Cc1cc(C)c(Oc2cc(NC3CCN(Cc4ccncc4)CC3)nc(Nc3ccc(C#N)cc3)n2)c(C)c1 | < 1 | 44 | > 11 | 11 | 0.24 | – |
| Cc1cc(C#N)cc(C)c1Oc1cc(NC2CCN(Cc3ccc(S(N)(=O)=O)cc3)CC2)nc(Nc2ccc(C#N)cc2)n1 | 3 | 93 | 3.9 | 12 | 0.13 | – |
| Cc1cc(C#N)cc(C)c1Oc1cc(NC2CCN(Cc3ccc(S(C)(=O)=O)cc3)CC2)nc(Nc2ccc(C#N)cc2)n1 | 1 | > 3550 | > 206 | > 206 | 0.058 | – |
| Cc1cc(C#N)cc(C)c1Oc1cc(NC2CCN(Cc3ccncc3)CC2)nc(Nc2ccc(C#N)cc2)n1 | 22 | 2140 | 4.6 | 100 | 0.047 | 33 |
| CC(C)Nc1cccnc1N1CCN(C(=O)c2cc3cc(NS(C)(=O)=O)ccc3[nH]2)CC1 [DELAVIRDINE MESYLATE] | 1 | > 227 | > 36 | > 36 | 0.13 | – |
| O=C1Nc2ccc(Cl)cc2[C@@](C#CC2CC2)(C(F)(F)F)O1 [EFAVIRENZ] | – | – | – | > 6.3 | 0.007 | – |
| Cc1ccnc2c1NC(=O)c1cccnc1N2C1CC1 [NEVIRAPINE] | – | – | 2.5 | > 15 | 0.17 | – |
